pIC50: −log10 of the molar value.
Biological target: T1, 11beta-HSD1 (Homo sapiens, UniProt P28845)
Test: not given
Design: host or cells: patients (liver), in vivo
Conditions: patients with type 2 diabetes, seven day treatment, versus placebo; cited from earlier work

T1 sequence (P28845 whole entry): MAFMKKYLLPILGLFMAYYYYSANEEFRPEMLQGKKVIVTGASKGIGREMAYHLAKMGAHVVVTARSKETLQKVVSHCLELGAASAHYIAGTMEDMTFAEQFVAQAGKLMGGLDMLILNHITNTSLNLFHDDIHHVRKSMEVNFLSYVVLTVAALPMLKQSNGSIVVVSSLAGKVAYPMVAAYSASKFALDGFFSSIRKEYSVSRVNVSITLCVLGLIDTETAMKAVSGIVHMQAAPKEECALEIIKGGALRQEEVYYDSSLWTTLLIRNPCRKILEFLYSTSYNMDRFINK

Molecule | hepatic glucose production
CC1(C)[C@@H](OC(=O)CCC(=O)O)CC[C@]2(C)[C@H]3C(=O)C=C4[C@@H]5C[C@@](C)(C(=O)O)CC[C@]5(C)CC[C@@]4(C)[C@]3(C)CC[C@@H]12 [carbenoxolone] | decrease in hepatic glucose production

Biological target: T1, 11beta-HSD1
Test: In vitro inhibition of recombinant human 11beta-HSD1 (microsomal Scintillation Proximity Assay)
Format: biochemical
Design: made in house; microsomal fraction used as enzyme source
Conditions: microsomes from HEK 293 EBNA cells, 250 nM [3H]-cortisone, 500 μM NADPH, pH 6.5, room temperature
Description: The in vitro inhibition of recombinant human 11beta-HSD1 was determined as follows.
Cells were grown in DMEM (high glucose) containing MEM non-essential amino acids, L-glutamine, hygromycine B (200 ug/ml), and G418(200 ug/ml). The cell pellets were homogenized, and the microsomal fraction was obtained by differential centrifugation. 11beta-HSD1 over expressed microsomes were used as the enzyme source for the Scintillation Proximity Assay (SPA). […] The reaction was terminated with the addition of 1 mM 18β-glycerrhentic acid. SPA reagent mixture (YSi anti-rabbit IgG, anti-cortisol antibody in 50 mM Tris, pH 8.0 containing 1% CHAPS and 1% glycerol) was added and the reaction was further incubated at room temperature over night and counted in TopCount. […]

pIC50 | Molecule
< 5.00 | NC(=O)c1c(O)nc(SCc2ccccc2Cl)c2c1CCCC2 [Example 3, 1-(2-Chlorobenzylthio)-3-hydroxy-5,6,7,8-tetrahydroisoquinoline-4-carboxamide]
6.33 | O=C(O)c1c(O)nc(SCc2ccccc2Cl)c2c1CCCC2 [Example 6, 1-(2-Chlorobenzylthio)-3-hydroxy-5,6,7,8-tetrahydroisoquinoline-4-carboxylic acid]
8.56 | N#Cc1c(O)nc(SCc2cccnc2Cl)c2c1CCCC2 [Example 32]
6.11 | Oc1nc(SCc2cccc(Cl)c2)c2ccccc2c1Cl [Example 115]
6.28 | O=S(=O)(Cc1cccc(Cl)c1)c1nc(O)c(Cl)c2ccccc12 [Example 118]
8.57 | N#Cc1ccccc1CSc1nc(O)c(Cl)c2ccccc12 [Example 130]
8.65 | N#Cc1ccccc1CSc1nc(O)c(Cl)c2ccc(Cl)cc12 [Example 132]
8.56 | N#Cc1c(O)nc(SCc2cnccc2Cl)c2cc(F)ccc12 [Example 164]
8.83 | N#Cc1ccncc1CSc1nc(O)c(C#N)c2ccc(F)cc12 [Example 170]
8.59 | N#Cc1c(O)nc(SCc2cc(F)ccc2F)c2cc(F)ccc12 [Example 175]
8.52 | N#Cc1cccc(Cl)c1CSc1nc(O)c(C#N)c2ccc(F)cc12 [Example 181]
6.54 | N#Cc1ccccc1-c1c(O)nc(SCc2ccccc2Cl)c2c1CCCC2 [Example 292]

Molecule | pIC50
Oc1cc2c(c(SCc3ccccc3Cl)n1)N1CCC2CC1 [Example 29] | < 5.00
N#Cc1c(O)nc(SCc2ccccc2Cl)c2c1CCNC2 [Example 35] | 6.34

Same assay, conditions: read-out: IC50 (concentration of compound required for 50% inhibition of cortisol formation); microsomes from HEK 293 EBNA cells, 250 nM [3H]-cortisone, 500 μM NADPH, pH 6.5, room temperature

pIC50 | Molecule
6.17 | 4,7-Dichloro-1-(2-chlorobenzylthio)isoquinolin-3-ol [Example 109]

From patent publication US8318941B2, “Pyridone/hydroxypyridine 11-beta hydroxysteroid dehydrogenase type I inhibitors” (Bristol-Myers Squibb Company, priority 2006, dated 2012)
